Test results from patent publication US20080045513A1, “C[…] INHIBITOR AND […], ANTI-INFLAMMATORY OR ANTI-PYRETIC AGENT” (N.V. Organon, priority 2006, published 2008).
pIC50: −log10 of the molar value.

What was measured:
[1] = target: T1, FAAH (Homo sapiens, UniProt O00519); assay: FAAH LC-MS/MS screening assay (anandamide hydrolysis by human liver microsomes); assay type: biochemical; settings: for anandamide hydrolysis allowed (percent hydrolysis normalized to control): inhibitor at 30 nM, 60 minute incubation at 37° C.
T1 construct: 25 μL of human liver microsomes (31.3 μg); from tissue; host or cells: human liver microsomes
T1 sequence (O00519 1-579): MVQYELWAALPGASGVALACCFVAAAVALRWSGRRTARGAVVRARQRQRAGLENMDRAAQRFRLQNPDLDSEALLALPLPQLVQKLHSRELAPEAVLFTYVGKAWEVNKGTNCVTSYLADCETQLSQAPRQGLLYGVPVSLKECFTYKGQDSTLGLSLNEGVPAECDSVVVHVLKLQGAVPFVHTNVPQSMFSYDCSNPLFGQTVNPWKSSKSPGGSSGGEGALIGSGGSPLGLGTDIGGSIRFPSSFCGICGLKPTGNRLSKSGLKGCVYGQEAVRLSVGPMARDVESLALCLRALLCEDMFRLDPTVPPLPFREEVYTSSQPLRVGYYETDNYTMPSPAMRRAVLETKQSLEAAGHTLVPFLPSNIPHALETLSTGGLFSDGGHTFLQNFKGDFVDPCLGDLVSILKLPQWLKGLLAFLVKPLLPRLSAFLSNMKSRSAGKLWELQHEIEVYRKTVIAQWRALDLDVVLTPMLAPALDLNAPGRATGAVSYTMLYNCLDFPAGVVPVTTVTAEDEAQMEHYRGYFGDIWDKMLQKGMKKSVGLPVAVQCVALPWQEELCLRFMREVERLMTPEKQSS
Protocol: For determining IC50 values for candidate FAAH inhibitor compounds, the above method is used with an adjusted FAAH inhibitor concentration. In the IC50 assay, the FAAH inhibitor is added at a concentration range of approximately 3 μM to 0.03 nM. The final calculation of IC50 is determined by first transforming the concentrations by “X=log(X)” and then analyzing the data with a sigmoidal dose-response curve (no constraints) using GraphPad Prism version 4.00 for Windows (GraphPad Software, San Diego Calif. USA, www.graphpad.com).

[2] = Pharmacokinetics in rats following oral administration as a suspension; blood concentrations of compound, acetaminophen and fatty acid ethanolamides; assay type: in vivo; settings: 10 mg/kg oral gavage
Protocol: Potential FAAH inhibitors are formulated for oral (p.o.), intraperitoneal (i.p.) or intravenous (i.v.) delivery to rats. Formulated compounds are administered and the animals were sacrificed at pre-determined time points post dose. At sacrifice, blood samples are collected into EDTA plasma tubes and whole brains were snap frozen in liquid nitrogen. EDTA plasma was isolated from blood samples after centrifugation. Brain and plasma samples are stored at −80° C. prior to analysis. All samples (brain and plasma) are analyzed for the concentrations of test compound (FAAH inhibitor), metabolites of the test compound (such as, for example, acetaminophen, propofol, NSAID, or NSAID metabolite) and endogenous fatty acid ethanolamide levels (including anandamide, oleoylethanolamide, and palmitoylethanolamide) by LC-MS/MS according to the invention. Levels of these compounds are compared across time points to determine pharmacokinetic properties of the test compound and partial pharmacological effects of inhibiting FAAH activity (including changes of fatty acid ethanolamide levels).
The pharmacokinetic properties of 4-acetamidophenyl cyclohexylnethylcarbamate were assessed in rats following oral administration as a suspension. […] The suspension of 4-acetamidophenyl cyclohexylmethylcarbamate was administered to rats at a dose of 10 mg/kg of 4-acetamidophenyl cyclohexylmethylcarbamate via oral gavage. Blood samples were extracted from the rats. Samples were analyzed for concentrations of OEA, PEA, AEA, 4-acetamidophenyl cyclohexylmethylcarbamate and acetaminophen (in-vivo metabolite). Baseline levels of OEA and PEA were 4.18 and 4.17 ng/mL, respectively.

[3] = system: CFA-induced mechanical hyperalgesia in rats; assay: Complete Freund's Adjuvant (CFA)-induced mechanical hyperalgesia (paw withdrawal threshold); assay type: in vivo, male Wistar rats; settings: 60 mg/kg, p.o.; 24 h after intraplantar CFA; reading 2 h post drug administration
Protocol: In this rat model of inflammatory pain, inflammation is induced by intraplantar injection of complete Freund's adjuvant (CFA) into the hind paw. The associated mechanical hyperalgesia is quantified by measuring the reduction in paw withdrawal threshold (PWT) to a mechanical compression of the paw.
Experiments were conducted using male Wistar rats weighing 130-180 g. In brief, the rats' paw withdrawal threshold (PWT) to a mechanical compression of the hind paw was measured (baseline reading) using a Randall-Sellito apparatus (Ugo Basile). A cut-off of 200 g was employed to minimise tissue damage to the paw. The animals were then briefly anaesthetised with isoflurane (˜2%) and complete Freund's adjuvant (0.1 ml per paw) was injected subcutaneously (s.c.) into the plantar surface of the left hind paw. The animals were then returned to their home cage and left for the inflammation to develop.
Twenty four hours after CFA injection, PWT's were re-measured (0 min); only those animals developing hyperalgesia (>20 g decrease in PWT compared to their baseline readings) were included for drug assessment. Rats were then dosed orally with either vehicle or test compound. Readings were then made at 2 h post drug administration.

Structure (SMILES)	anandamide hydrolysis allowed (percent hydrolysis normalized to control) [1]	AUC of AEA [2]	Tmax of AEA [2]	Tmax of OEA [2]	Tmax of PEA [2]	AUC of OEA ([2]; baseline OEA 4.18 ng/mL)	Cmax of OEA ([2]; baseline OEA 4.18 ng/mL)	AUC of PEA ([2]; baseline PEA 4.17 ng/mL)	Cmax of PEA ([2]; baseline PEA 4.17 ng/mL)	AUC ([2]; rat, plasma, suspension)	Cmax ([2]; rat, plasma, suspension)	Tmax ([2]; rat, plasma, suspension)	reversal of mechanical hyperalgesia [3]	pIC50 ([1]; inhibitor range approximately 3 μM to 0.03 nM)
CC(=O)Nc1ccc(OC(=O)NC2CCCCC2)cc1 [4-acetamidophenyl cyclohexylcarbamate]	56%	–	–	–	–	–	–	–	–	–	–	–	–	–
NC(=O)c1cccc(-c2cccc(OC(=O)NC3CCCCC3)c2)c1 [reference compound]	30%	–	–	–	–	–	–	–	–	–	–	–	–	–
CC(=O)Nc1ccc(OC(=O)NCC2CCCCC2)cc1 [4-acetamidophenyl cyclohexylmethylcarbamate]	37%	0 ng·h/mL	0 h	90 min	60 min	40 ng·h/mL	7.55 ng/mL	43 ng·h/mL	8.85 ng/mL	6780 ng·h/mL	7740 ng/mL	30 min	complete reversal	7.84
